Measured values published in article PMC6253949, “The Inhibitory Action of Kohamaic Acid A Derivatives on Mammalian DNA Polymerase β” (Molecules, 2008).

Columns and labels:
Format in all cases: biochemical
[1] = target: T1, Taq DNA polymerase (Thermus aquaticus, UniProt P19821); assay: DNA polymerase assay, Taq pol; details: incubated at 74 °C
T1 construct: purchased Takara (Kyoto, Japan)
From the text: (§1) Pol α was purified from calf thymus by immuno-affinity column chromatography as described by Tamai et al.. Recombinant rat pol β was purified from E. coli JMpβ5 as described by Date et al.. The human pol γ catalytic gene was cloned into pFastBac. Histidine-tagged enzyme was expressed using the BAC-TO-BAC HT Baculovirus Expression System according to the supplier's manual (LIFE TECHNOLOGIES, MD, USA) and purified using ProBoundresin (Invitrogen Japan, Tokyo, Japan). Human pols δ and ε were purified by the nuclear fractionation of human peripheral blood cancer cells (Molt-4) using the second subunit of pols δ and ε-conjugated affinity column chromatography, respectively. Recombinant human pols η and ι tagged with His6 at their C-terminal were expressed in SF9 insect cells using the baculovirus expression system, and were purified as described previously. A truncated form of pol κ (i.e., hDINB1DC) with 6 x His-tags attached at the C-terminal was overproduced using the BAC-to-BAC Baculovirus Expression System kit (GIBCO BRL, MD, USA) and purified as described previously. […]
(§2) For pols, poly(dA)/oligo(dT)12-18 (A/T = 2/1) and dTTP were used as the DNA template-primer and nucleotide (i.e., dNTP) substrate, respectively. […] Activity without the inhibitor was considered 100%, and the remaining activity at each concentration of the inhibitor was determined relative to this value. […]

[2] = target: T2, Human DNA polymerase η (Homo sapiens, UniProt Q9Y253); assay: DNA polymerase assay, human pol η
T2 construct: His6 (C); made in house; host or cells: SF9 insect cells (baculovirus)
T2 sequence (Q9Y253 1-713): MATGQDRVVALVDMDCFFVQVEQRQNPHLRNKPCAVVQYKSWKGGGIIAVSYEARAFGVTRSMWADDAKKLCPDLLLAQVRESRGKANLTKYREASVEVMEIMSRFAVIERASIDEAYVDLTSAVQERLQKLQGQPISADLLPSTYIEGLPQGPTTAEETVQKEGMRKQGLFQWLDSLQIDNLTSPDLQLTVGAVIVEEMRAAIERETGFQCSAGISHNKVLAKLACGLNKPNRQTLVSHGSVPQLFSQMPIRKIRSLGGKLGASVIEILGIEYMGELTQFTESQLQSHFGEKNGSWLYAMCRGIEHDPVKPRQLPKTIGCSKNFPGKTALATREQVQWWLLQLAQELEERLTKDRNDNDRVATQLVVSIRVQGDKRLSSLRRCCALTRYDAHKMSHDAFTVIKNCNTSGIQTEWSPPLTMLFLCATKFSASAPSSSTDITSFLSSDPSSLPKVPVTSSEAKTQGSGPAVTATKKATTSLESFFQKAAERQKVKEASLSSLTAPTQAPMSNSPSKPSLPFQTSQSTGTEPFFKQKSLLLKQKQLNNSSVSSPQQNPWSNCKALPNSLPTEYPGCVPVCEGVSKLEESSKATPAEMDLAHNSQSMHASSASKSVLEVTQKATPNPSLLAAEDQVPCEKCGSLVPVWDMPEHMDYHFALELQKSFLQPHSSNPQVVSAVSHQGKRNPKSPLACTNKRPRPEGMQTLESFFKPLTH
From the text: as §1, §2

[3] = target: T3, T7 RNA polymerase (Escherichia phage T7, UniProt P00573); assay: T7 RNA polymerase assay
T3 construct: purchased Takara (Kyoto, Japan)
T3 sequence (P00573 whole entry): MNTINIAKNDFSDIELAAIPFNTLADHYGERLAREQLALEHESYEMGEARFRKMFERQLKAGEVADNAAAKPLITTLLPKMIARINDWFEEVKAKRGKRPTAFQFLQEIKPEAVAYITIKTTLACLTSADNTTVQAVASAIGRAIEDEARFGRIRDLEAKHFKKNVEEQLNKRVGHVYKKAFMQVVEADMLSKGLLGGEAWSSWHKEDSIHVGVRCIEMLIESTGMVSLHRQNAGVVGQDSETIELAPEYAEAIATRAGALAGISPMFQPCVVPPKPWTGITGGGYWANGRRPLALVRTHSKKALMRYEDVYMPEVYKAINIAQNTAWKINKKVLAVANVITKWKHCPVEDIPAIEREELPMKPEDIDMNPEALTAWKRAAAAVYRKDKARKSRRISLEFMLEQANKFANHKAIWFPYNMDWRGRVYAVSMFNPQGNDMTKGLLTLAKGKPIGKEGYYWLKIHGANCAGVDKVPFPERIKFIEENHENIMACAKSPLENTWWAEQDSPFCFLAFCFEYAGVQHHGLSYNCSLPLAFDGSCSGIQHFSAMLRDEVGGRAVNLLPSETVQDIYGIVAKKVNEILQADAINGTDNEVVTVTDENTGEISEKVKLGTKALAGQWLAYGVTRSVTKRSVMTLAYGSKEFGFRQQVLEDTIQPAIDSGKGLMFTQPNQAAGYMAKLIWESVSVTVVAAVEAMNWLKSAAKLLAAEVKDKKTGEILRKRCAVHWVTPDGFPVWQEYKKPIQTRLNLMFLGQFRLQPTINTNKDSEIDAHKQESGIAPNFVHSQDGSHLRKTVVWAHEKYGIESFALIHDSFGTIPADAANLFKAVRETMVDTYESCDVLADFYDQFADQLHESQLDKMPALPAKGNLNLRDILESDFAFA
From the text: as §1
The primase activity of calf pol α, the activities of T7 RNA polymerase, T4 polynucleotide kinase and bovine DNase I were measured in standard assays according to the manufacturer's specifications as described by Tamiya-Koizumi et al., Nakayama et al., Soltis et al., and Lu and Sakaguchi, respectively.

[4] = target: T4, Human DNA polymerase κ (Homo sapiens, UniProt Q9UBT6); assay: DNA polymerase assay, human pol κ
T4 construct: A truncated form of pol κ (i.e., hDINB1DC); 6xHis (C); made in house; host or cells: baculovirus expression system (insect cells)
T4 sequence (Q9UBT6 1-560 limits assumed): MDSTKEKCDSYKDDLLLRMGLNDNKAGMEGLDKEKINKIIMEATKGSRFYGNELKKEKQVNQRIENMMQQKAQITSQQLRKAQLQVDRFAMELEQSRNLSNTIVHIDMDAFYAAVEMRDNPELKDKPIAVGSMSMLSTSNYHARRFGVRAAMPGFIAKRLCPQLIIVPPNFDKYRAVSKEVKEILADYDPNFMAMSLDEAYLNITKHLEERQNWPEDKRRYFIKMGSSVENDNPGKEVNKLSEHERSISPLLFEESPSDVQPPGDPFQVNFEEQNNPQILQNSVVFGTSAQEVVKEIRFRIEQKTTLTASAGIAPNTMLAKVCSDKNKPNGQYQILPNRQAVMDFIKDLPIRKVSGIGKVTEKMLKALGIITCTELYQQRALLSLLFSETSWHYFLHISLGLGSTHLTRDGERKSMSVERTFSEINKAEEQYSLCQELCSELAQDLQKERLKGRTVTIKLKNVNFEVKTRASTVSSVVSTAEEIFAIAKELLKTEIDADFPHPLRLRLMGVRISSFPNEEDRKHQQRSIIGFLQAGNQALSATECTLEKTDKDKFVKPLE
From the text: as §1, §2

[5] = target: Cherry salmon DNA polymerase δ (Oncorhynchus masou, UniProt Z9UCE0HTX2); assay: DNA polymerase assay, fish pol δ
Chain of Cherry salmon DNA polymerase δ (Z9UCE0HTX2 1-856): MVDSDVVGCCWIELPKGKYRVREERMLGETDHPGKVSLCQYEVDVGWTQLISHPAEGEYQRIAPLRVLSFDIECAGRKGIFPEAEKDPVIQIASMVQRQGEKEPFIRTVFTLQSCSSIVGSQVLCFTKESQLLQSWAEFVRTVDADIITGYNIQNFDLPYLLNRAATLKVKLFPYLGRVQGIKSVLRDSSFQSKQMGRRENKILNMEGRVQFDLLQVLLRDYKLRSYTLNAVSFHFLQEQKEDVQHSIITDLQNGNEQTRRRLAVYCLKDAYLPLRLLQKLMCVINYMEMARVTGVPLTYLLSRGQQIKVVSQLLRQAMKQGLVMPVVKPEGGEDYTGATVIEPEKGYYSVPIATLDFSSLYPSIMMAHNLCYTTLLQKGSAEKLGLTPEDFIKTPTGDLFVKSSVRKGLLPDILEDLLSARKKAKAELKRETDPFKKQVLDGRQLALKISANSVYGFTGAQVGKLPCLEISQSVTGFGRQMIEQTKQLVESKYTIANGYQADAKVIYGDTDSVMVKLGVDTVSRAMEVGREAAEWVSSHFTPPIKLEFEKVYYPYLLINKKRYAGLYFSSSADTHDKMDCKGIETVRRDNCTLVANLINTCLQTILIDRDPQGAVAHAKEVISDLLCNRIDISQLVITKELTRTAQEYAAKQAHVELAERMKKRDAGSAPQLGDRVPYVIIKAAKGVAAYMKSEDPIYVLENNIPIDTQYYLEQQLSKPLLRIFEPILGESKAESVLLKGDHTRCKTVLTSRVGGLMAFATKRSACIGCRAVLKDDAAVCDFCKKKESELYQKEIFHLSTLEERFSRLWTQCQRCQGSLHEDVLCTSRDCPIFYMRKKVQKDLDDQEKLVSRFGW

T1 sequence (P19821 whole entry): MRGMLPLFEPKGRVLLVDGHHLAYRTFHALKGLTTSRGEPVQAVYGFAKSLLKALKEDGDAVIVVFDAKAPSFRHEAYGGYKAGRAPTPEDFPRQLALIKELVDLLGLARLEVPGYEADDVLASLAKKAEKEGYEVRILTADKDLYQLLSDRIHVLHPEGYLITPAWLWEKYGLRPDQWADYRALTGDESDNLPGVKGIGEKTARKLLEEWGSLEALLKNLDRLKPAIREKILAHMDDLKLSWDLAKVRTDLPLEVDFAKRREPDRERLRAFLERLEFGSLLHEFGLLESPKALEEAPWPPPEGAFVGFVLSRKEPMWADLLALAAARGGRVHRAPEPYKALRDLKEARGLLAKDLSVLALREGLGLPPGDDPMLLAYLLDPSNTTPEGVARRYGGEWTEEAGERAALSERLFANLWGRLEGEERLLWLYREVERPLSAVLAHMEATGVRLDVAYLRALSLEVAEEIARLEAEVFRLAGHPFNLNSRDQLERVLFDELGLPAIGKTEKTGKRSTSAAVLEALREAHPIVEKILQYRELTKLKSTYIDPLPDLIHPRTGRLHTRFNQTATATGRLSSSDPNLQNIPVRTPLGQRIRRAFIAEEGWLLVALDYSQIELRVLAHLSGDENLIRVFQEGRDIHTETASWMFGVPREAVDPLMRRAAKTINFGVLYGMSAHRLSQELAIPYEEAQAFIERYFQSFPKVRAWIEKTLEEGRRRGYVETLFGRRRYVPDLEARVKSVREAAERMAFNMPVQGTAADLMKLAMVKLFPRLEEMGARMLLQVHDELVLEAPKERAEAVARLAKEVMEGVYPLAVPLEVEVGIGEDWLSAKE

For `CC1=CC[C@H]2C(C)(C)CCC[C@]2(C)[C@H]1CCCCCCCCCCCCCCCCC(=O)O` (relative stereo) [compound 11, (1S*,4aS*,8aS*)-17-(1,4,4a,5,6,7,8,8a-octahydro-2,5,5,8a-tetramethylnaphthalen-1-yl)heptadecanoic acid], the IC50 [1] was greater than 200 µM, the IC50 [2] was 7.45 ± 0.37 µM and the “Influence on T7 RNA polymerase activity” value [3] was “not influenced”. It also gave an IC50 [4] of 7.2 ± 0.36 µM and an IC50 [5] of 4.3 ± 0.22 µM.
